Test results: patent publication US9724506B2, “Nanopillar electrode devices and methods of recording action potentials” (The Board of Trustees of the Leland Stanford Junior …, priority 2013, dated 2017)
Several values for one entry are separate records, joined by “and”; a condition that tells them apart may be missing. Equal entries are not always repeated.

Test system: HL-1 cells
Experiment: Nanopillar electrode intracellular recording of HL-1 action potentials after electroporation, before and after ion-channel drug
Assay type: cell-based, mouse
Settings: for APD50 after drug: 10 min incubation, 4 different HL-1 cells in 3 cultures, same cell recorded before and after drug; for APD50 change (%): APD50 after drug versus before drug on the same HL-1 cell
Protocol: The HL-1 cardiomyocyte cell line was obtained from the laboratory of William C. Claycomb at Louisiana State University. Before plating, the nanopillar electrode device was cleaned with detergent and deionized water, followed by 5 minutes of oxygen plasma treatment. The culture chamber was coated with 5 Δg ml^−1 fibronectin in 0.02% gelatin solution overnight to facilitate cell attachment (Claycomb et al. (1998) Proc. Natl. Acad. Sci. USA 95:2979-2984). HL-1 cells were then plated inside the chamber at a density of ˜1×10^5 cm^−2 and were maintained in the Claycomb medium supplemented with 10% fetal bovine serum, 0.1 mM norepinephrine, 2 mM L-glutamine and 100 U ml^−1 penicillin and 100 Δg ml^−1 streptomycin. The cells were maintained in a standard incubator at 37° C. and 5% CO2. Medium was changed every 24 hours. […] Fluorescent imaging of calcein dye was performed with a 470 nm excitation filter and a 525 nm emission filter.
A 60-channel voltage amplifier system (Multichannel System, MEA1060) was used to record HL-1 cells cultured on the nanopillar electrode arrays (nine nanopillars per array) after the cells started beating. Recording was performed in the same culture medium at 37° C. with an Ag/AgCl electrode in the medium as the reference electrode. The amplification was typically 110× for intracellular recording or 1,100× for extracellular recording, and the sampling rate was 5-20 kHz. The signal was filtered with a band-pass of 1 Hz-5 kHz. For electroporation, 20 biphasic pulses of 2.5 Vamp were applied to a nanopillar electrode in a total time of 1 second. The recording system was blanked during the electroporation period. Electrophysiology recordings were resumed 20-40 seconds after electroporation to avoid amplifier saturation.
For control experiments, we electroporated the cells to record action potentials in the absence of drugs. After the cells had recovered for a few hours, nifedipine or tetraethyl-ammonium of different concentrations was added to the culture medium and the cultures incubated for 10 minutes. Subsequently, another electroporation was applied to record the action potentials of the drug-treated cells.

[1] = 10 mM tetraethylammonium, HL-1 cells, versus control recording without drug (FIG. 5)

Structure (SMILES)	APD50 after drug (100 nM nifedepine)	APD50 change (%) (100 nM nifedepine)	APD50 after drug (1 mM tetraethylammonium)	APD50 change (%) (1 mM tetraethylammonium)	APD50 [1]	action potential period [1]	APD50 relative to the control (FIG. 5c, four different HL-1 cells on three different cultures per drug)
COC(=O)C1=C(C)NC(C)=C(C(=O)OC)C1c1ccccc1[N+](=O)[O-] [nifedipine]	41.52 ms and 43.40 ms and 40.92 ms and 33.39 ms	93.8% and 93.6% and 94.0% and 92.9%					
CC[N+](CC)(CC)CC [tetraethylammonium]			50.54 ms and 45.74 ms and 48.78 ms and 54.93 ms	109.9% and 110.5% and 111.1% and 109.8%	increasing APD50	decreasing the period	increase
